Target: T1, human OT receptor (Homo sapiens, UniProt P30559)
T1 construct: expressed in transfected cells; host or cells: mammalian cell line, e.g. Chinese hamster ovary (CHO), stably or transiently transfected; co-transfected with a firefly luciferase reporter (e.g. NFAT promoter)
T1 sequence (P30559 1-389): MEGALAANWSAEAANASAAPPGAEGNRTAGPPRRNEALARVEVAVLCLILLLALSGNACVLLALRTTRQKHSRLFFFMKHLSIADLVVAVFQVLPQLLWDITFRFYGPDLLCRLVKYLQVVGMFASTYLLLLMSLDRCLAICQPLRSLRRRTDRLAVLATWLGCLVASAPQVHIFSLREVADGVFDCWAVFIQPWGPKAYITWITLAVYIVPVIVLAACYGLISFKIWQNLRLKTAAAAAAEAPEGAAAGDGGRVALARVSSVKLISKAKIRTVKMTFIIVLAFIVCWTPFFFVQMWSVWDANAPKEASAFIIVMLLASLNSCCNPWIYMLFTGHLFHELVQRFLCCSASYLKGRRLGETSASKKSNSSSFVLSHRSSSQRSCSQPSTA
Test: human OT receptor agonist assay, luciferase reporter (NFAT promoter) in transfected CHO cells
Format: cell-based
Conditions: for OT (efficacy): maximal efficacy compared to the maximal stimulation observed with OT; for EC50: concentration at which the response is 50% of the maximum, 4-parameter logistic fit, luciferase reporter in cells expressing the human OT receptor
Method: In addition, the cells are transfected with a gene for firefly luciferase under the control of a suitable promoter, e.g. NFAT promoter. Contact of the OT receptor by an agonist leads to stimulation of luciferase synthesis, the extent of which is measured using commercially available reagents. Concentrations at which the response is 50% of the maximum are calculated by fitting of data to 4-parameter logistic curves. Maximal efficacy is calculated compared to the maximal stimulation observed with OT.

SMILES: Cc1cc(C(=O)N2Cc3cnn(C)c3Nc3ccccc32)ccc1CNC(=O)N1CCN(Cc2cc(O)cc(O)c2)CC1 [Example 1, 4-(3,5-Dihydroxy-benzyl)-piperazine-1-carboxylic acid 2-methyl-4-(3-methyl-4,10-dihydro-3H-2,3,4,9-tetraaza-benzo[f]azulene-9-carbonyl)-benzylamide]
- OT (efficacy): 76%

SMILES: Cc1cc(C(=O)N2Cc3cnn(C)c3Nc3ccccc32)ccc1CNC(=O)N1CCN(Cc2cccc(C(=S)N(C)C)c2)CC1 [Example 6, 4-(3-Dimethylthiocarbamoyl-benzyl)-piperazine-1-carboxylic acid 2-methyl-4-(3-methyl-4,10-dihydro-3H-2,3,4,9-tetraaza-benzo[f]azulene-9-carbonyl)-benzylamide]
- EC50: 190 nM
- OT (efficacy): 21%

SMILES: Cn1ncc2c1Nc1ccccc1N(C(=O)c1ccc(CNC(=O)N3CCN(Cc4cc(O)cc(O)c4)CC3)cc1Cl)C2 [Example 3, 4-(3,5-Dihydroxy-benzyl)-piperazine-1-carboxylic acid 3-chloro-4-(3-methyl-4,10-dihydro-3H-2,3,4,9-tetraaza-benzo[f]azulene-9-carbonyl)-benzylamide]
- EC50: 58 nM
- OT (efficacy): 41%

SMILES: Cn1ncc2c1Nc1ccccc1N(C(=O)c1ccc(CNC(=O)N3CCN(Cc4cc(O)cc(O)c4)CC3)c(F)c1)C2 [Example 4, 4-(3,5-Dihydroxy-benzyl)-piperazine-1-carboxylic acid 2-fluoro-4-(3-methyl-4,10-dihydro-3H-2,3,4,9-tetraaza-benzo[f]azulene-9-carbonyl)-benzylamide]
- EC50: 74 nM
- OT (efficacy): 51%

SMILES: Cc1cc(C(=O)N2Cc3cnn(C)c3Nc3ccccc32)ccc1CNC(=O)N1CCN(Cc2cccc(C(=O)N(C)C)c2)CC1 [Example 5, 4-(3-Dimethylcarbamoyl-benzyl)-piperazine-1-carboxylic acid 2-methyl-4-(3-methyl-4,10-dihydro-3H-2,3,4,9-tetraaza-benzo[f]azulene-9-carbonyl)-benzylamide]
- EC50: 33 nM
- OT (efficacy): 13%

SMILES: Cc1cc(C(=O)N2Cc3cnn(C)c3Nc3ccccc32)cc(C)c1CNC(=O)N1CCN(Cc2cc(O)cc(O)c2)CC1 [Example 2, 4-(3,5-Dihydroxy-benzyl)-piperazine-1-carboxylic acid 2,6-dimethyl-4-(3-methyl-4,10-dihydro-3H-2,3,4,9-tetraaza-benzo[f]azulene-9-carbonyl)-benzylamide]
- EC50: 24 nM
- OT (efficacy): 16%
